Assay results reported in patent US20120040951A1, “HETEROARYL COMPOUNDS USEFUL AS RAF KINASE INHIBITORS” (priority 2008, published 2012).
Where two headings read alike, the source gives them in different places.

Columns and labels:
V599E Raf = V599E Raf (Homo sapiens, UniProt P15056, V600E); test: Biochemical FRET assay, mutant Raf (phosphorylation of MEK); conditions: 0.125 nM V599E Raf, 100 nM biotin-MEK, 25 μM ATP, read-out: Raf (mut) inhibition
Procedure: (1) Biochemical FRET Assay […]
Inhibitors were diluted 4-fold in 100% DMSO and added to a final concentration of 10 μM to 40 μM to a solution containing 100 nM biotin-MEK, 0.125 nM V599E Raf in 50 mM HEPES, pH 7.4, 60 mM NaCl, 3 mM MgCl2, 2 mM DTT, 0.25 mM MnCl2, 0.01% BSA, and 0.01% Tween-20 and incubated for 20 minutes at room temperature. The kinase reaction was started by the addition of 25 μM ATP to a final volume of 45 μl and allowed to progress for 60 minutes. The reaction was stopped with 15 mM EDTA and 20 nM Streptavidin-APC, 2.5 nM Polyclonal anti p-MEK1/2 (Ser217/221), 2.5 nM Eu-labeled anti-rabbit IgG were added in Lance detection buffer and 5% Superblock in PBS for a final volume of 100 μl. The detection reaction was incubated for 90 minutes at room temperature and then read on an Analyst plate reader using standard TR-FRET (time resolved fluorescence resonance energy transfer) settings for Eu and APC.
Compounds having an activity designated as “A” provided an IC50≦100 nM; compounds having an activity designated as “B” provided an IC50 of 100-1000 nM; and compounds having an activity designated as “C” provided an IC50 of 1000-10,000 nM.

[1] = test system: phospho-ERK in melanoma derived WM-266-4 cells; test: Mechanistic cellular assay for Raf kinase activity (phospho-ERK, Bio-Plex); type: cell-based; conditions: treated 1-2 hr at 37° C., serum free medium, read-out: pERK EC50
How it was run: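 WM-266-4 melanoma cells (wild-type/V600D BRaf) grown overnight in 10% FBS RPMI, then treated 1–2 h at 37 °C in serum-free RPMI with eight 3-fold dilutions of compound (from 5 mM DMSO stock, 1000× dilution). Lysate phospho-ERK1,2 quantified by Bio-Plex bead immunoassay.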

Sequence of V599E Raf (P15056 whole entry V600E): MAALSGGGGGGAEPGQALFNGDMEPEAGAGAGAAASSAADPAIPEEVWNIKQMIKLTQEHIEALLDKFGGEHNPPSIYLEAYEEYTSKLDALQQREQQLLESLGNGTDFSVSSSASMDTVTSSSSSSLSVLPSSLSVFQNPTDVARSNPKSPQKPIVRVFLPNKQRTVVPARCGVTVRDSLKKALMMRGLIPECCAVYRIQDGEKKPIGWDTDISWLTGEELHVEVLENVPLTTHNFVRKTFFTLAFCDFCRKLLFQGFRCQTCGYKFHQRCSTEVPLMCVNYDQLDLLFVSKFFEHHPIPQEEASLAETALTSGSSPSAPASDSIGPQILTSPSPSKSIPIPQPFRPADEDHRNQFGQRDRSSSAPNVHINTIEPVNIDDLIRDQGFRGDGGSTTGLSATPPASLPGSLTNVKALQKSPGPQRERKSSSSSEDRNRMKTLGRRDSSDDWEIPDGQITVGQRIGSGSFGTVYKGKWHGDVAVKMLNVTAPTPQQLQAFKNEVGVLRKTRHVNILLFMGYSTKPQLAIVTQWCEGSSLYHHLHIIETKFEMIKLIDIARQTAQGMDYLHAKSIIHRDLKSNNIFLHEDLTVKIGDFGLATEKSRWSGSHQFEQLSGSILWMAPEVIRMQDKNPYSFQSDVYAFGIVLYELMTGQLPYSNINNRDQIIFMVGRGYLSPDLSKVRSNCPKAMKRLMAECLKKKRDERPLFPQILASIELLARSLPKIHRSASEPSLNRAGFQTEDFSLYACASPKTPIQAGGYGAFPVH

| Compound | IC50 (V599E Raf) [µM] | EC50 ([1]; Homo sapiens) [µM] | EC50 [1] [µM] |
| --- | --- | --- | --- |
| CCN1CC[C@H](n2cnc3cnc(C(=O)N[C@@H](C)c4cnc(Nc5ccc(C(F)(F)F)cc5)s4)cc32)C1 [Example 33] | ≤ 0.1 | 0.1 to 1 |  |
| Cc1n[nH]c(C)c1C(=O)N[C@H](C)c1ncc(C(=O)Nc2cc(C(F)(F)F)c(Cl)cn2)s1 [Example 111] | ≤ 0.1 | 1 to 10 |  |
| C[C@@H](NC(=O)c1csc(N)n1)c1ncc(C(=O)Nc2cc(C(F)(F)F)c(Cl)cn2)s1 [Example 98] | ≤ 0.1 | 1 to 10 |  |
| CCNCCn1cnc2cnc(C(=O)NC(C)c3cnc(Nc4ccc(C(F)(F)F)cc4)s3)cc21 (stereo not shown) [Example 34] | ≤ 0.1 | 0.1 to 1 |  |
| C[C@H](NC(=O)c1cc2c(cn1)ncn2C1CCC1)c1cnc(Nc2ccc(C(F)(F)F)cc2)cn1 [Example 187] | 0.1 to 1 | 1 to 10 |  |
| CC(NC(=O)c1cc2c(cn1)ncn2C)c1cnc(Nc2ccc(C(F)(F)F)cc2Cl)cn1 (stereo not shown) [Example 265a] | ≤ 0.1 | 0.1 to 1 |  |
| CC(NC(=O)c1cc2c(cn1)ncn2C)c1cnc(Nc2ccc(C(F)(F)F)nc2Cl)s1 (stereo not shown) [Example 263] | ≤ 0.1 | 0.1 to 1 |  |
| CC(NC(=O)c1cnn(C)c1)c1cnc(Nc2ccc(C(F)(F)F)cc2)s1 (stereo not shown) [Example 109] | ≤ 0.1 | 1 to 10 |  |
| CC(NC(=O)c1cc2c(cn1)ncn2C)c1cnc(Nc2ccc(C(F)(F)F)cc2Cl)s1 (stereo not shown) [Example 245] | ≤ 0.1 | ≤ 0.1 |  |
| COc1cc(C(F)(F)F)ccc1Nc1ncc(C(C)NC(=O)c2cc3c(cn2)ncn3C)s1 (stereo not shown) [Example 244] | ≤ 0.1 | ≤ 0.1 |  |
| C[C@@H](NC(=O)c1ccc(N)cc1)c1ncc(C(=O)Nc2cc(C(F)(F)F)c(Cl)cn2)s1 [Example 54] | 0.1 to 1 | 1 to 10 |  |
| Cc1ccc(NC(=O)c2cc([C@@H](C)NC(=O)c3cnn4ccccc34)no2)cc1C(F)(F)F [Example 218] | ≤ 0.1 | ≤ 0.1 |  |
| CC(NC(=O)c1cc2c(cn1)ncn2CC(=O)O)c1cnc(Nc2ccc(C(F)(F)F)cc2)s1 (stereo not shown) [Example 354] | ≤ 0.1 | 1 to 10 |  |
| C[C@@H](NC(=O)c1cn[nH]c1-c1ccccc1)c1ncc(C(=O)Nc2cc(C(F)(F)F)c(Cl)cn2)s1 [Example 107] | ≤ 0.1 | 0.1 to 1 |  |
| CC(NC(=O)c1cc2c(cn1)ncn2C(CO)CO)c1cnc(Nc2ccc(C(F)(F)F)cc2)s1 (stereo not shown) [Example 32] | ≤ 0.1 | 1 to 10 |  |
| CC(C)n1cc(C(=O)N[C@H](C)c2ncc(C(=O)Nc3cc(C(F)(F)F)c(Cl)cn3)s2)cn1 [Example 134] | 0.1 to 1 | 0.1 to 1 |  |
| C[C@@H](NC(=O)c1cc2ncn(C)c2cn1)c1ncc(C(=O)Nc2cc(C(F)(F)F)c(Cl)cn2)s1 [Example 41] | ≤ 0.1 | 0.1 to 1 |  |
| CCn1cnc2cnc(C(=O)NC(C)c3cnc(Nc4ccc(C(F)(F)F)cc4)s3)nc21 (stereo not shown) [Example 198] | ≤ 0.1 | 0.1 to 1 |  |
| CC(NC(=O)c1ccc2nccnc2c1)c1cnc(Nc2ccc(C(F)(F)F)cc2)s1 (stereo not shown) [Example 73] | ≤ 0.1 | 0.1 to 1 |  |
| CC(NC(=O)c1cnn2cccnc12)c1cnc(Nc2ccc(C(F)(F)F)cc2)s1 (stereo not shown) [Example 225] | ≤ 0.1 | 1 to 10 |  |
| C[C@@H](NC(=O)c1cc2c(cn1)ncn2[C@H]1CCNC1)c1cnc(Nc2ccc(C(F)(F)F)cc2)s1 [Example 31] | ≤ 0.1 | 0.1 to 1 |  |
| C[C@@H](NC(=O)c1cnc(CN2CCCC2)n1C)c1ncc(C(=O)Nc2cc(C(F)(F)F)c(Cl)cn2)s1 [Example 155] | ≤ 0.1 | 1 to 10 |  |
| Cc1nc2cc(C(=O)N[C@H](C)c3ncc(C(=O)Nc4cc(C(F)(F)F)c(Cl)cn4)s3)ccc2[nH]1 [Example 49] | ≤ 0.1 | 0.1 to 1 |  |
| Cc1ccc(NC(=O)c2cc([C@@H](C)NC(=O)c3cnn4cc(-c5ccncn5)cnc34)no2)cc1C(F)(F)F [Example 333] | 0.1 to 1 | 0.1 to 1 |  |
| CCCNc1ncc(C(=O)N[C@H](C)c2ncc(C(=O)Nc3cc(C(F)(F)F)c(Cl)cn3)s2)n1C [Example 153] | 0.1 to 1 | 1 to 10 |  |
| CC(NC(=O)c1cnn2cc(-c3cccnc3)ccc12)c1ncc(C(=O)Nc2cc(C(F)(F)F)c(Cl)cn2)s1 (stereo not shown) [Example 320] | ≤ 0.1 | ≤ 0.1 |  |
| CC(NC(=O)c1cc2c(cn1)ncn2C)c1cnc(Nc2ccc(F)c(S(=O)(=O)C(F)(F)F)c2)cn1 (stereo not shown) [Example 268] | ≤ 0.1 | ≤ 0.1 |  |

| Compound | IC50 (V599E Raf) [µM] | EC50 ([1]; Homo sapiens) [µM] | EC50 [1] [µM] |
| --- | --- | --- | --- |
| C[C@@H](NC(=O)c1ccc2ncccc2c1)c1cc(C(=O)Nc2cnc(C(C)(C)C)nc2N)no1 [Example 65] | 0.1 to 1 | 1 to 10 |  |
| C[C@@H](NC(=O)c1cc2c(cn1)ncn2C)c1cnc(Nc2ccc(C(F)(F)F)cc2)cn1 (single isomer, unassigned) [Example 37] | ≤ 0.1 | ≤ 0.1 |  |
| CC(NC(=O)c1cnn2ccccc12)c1cnc(Nc2ccc(C(F)(F)F)cc2)s1 (stereo not shown) [Example 224] | ≤ 0.1 | 0.1 to 1 |  |
| CC(NC(=O)c1cc2c(cn1)ncn2C)c1cnc(Nc2ccc(C(F)(F)F)cn2)cn1 (stereo not shown) [Example 264] | ≤ 0.1 |  | 0.1 to 1 |
| CC(NC(=O)c1cc2c(cn1)ncn2C)c1cnc(Nc2cccc(S(=O)(=O)C(F)(F)F)c2)cn1 (stereo not shown) [Example 243] | ≤ 0.1 | ≤ 0.1 |  |
| CC(NC(=O)c1cc2c(cn1)ncn2C)c1cnc(Nc2cnc(C(F)(F)F)nc2)s1 (stereo not shown) [Example 261] | ≤ 0.1 | 0.1 to 1 |  |
| CC(NC(=O)c1cc2c(cn1)ncn2C)c1cnc(Nc2cc(S(=O)(=O)C(F)(F)F)ccc2Cl)cn1 (stereo not shown) [Example 276] | ≤ 0.1 | ≤ 0.1 |  |
| Cc1cn(-c2cncc(C(=O)NC(C)c3ncc(C(=O)Nc4cc(C(F)(F)F)c(Cl)cn4)s3)c2)cn1 (stereo not shown) [Example 51] | 0.1 to 1 | 1 to 10 |  |
| CC(NC(=O)c1cnn(C)c1N)c1cnc(Nc2ccc(C(F)(F)F)cc2)s1 (stereo not shown) [Example 108] | ≤ 0.1 | 0.1 to 1 |  |
| CC(NC(=O)c1cc2c(cn1)ncn2C)c1cnc(Nc2ccc(F)c(C(C)(C)C(F)(F)F)c2)s1 (stereo not shown) [Example 290] | ≤ 0.1 | ≤ 0.1 |  |
| CC(NC(=O)c1ccc2ncccc2c1)c1cnc(Nc2ccc(C(F)(F)F)cc2)s1 (stereo not shown) [Example 72] | ≤ 0.1 | 1 to 10 |  |
| C[C@@H](NC(=O)c1ccc2[nH]c(C(F)(F)F)nc2c1)c1ncc(C(=O)Nc2cc(C(F)(F)F)c(Cl)cn2)s1 [Example 62] | 0.1 to 1 | 1 to 10 |  |
| C[C@@H](NC(=O)c1cnc(CN2CCOCC2)n1C)c1ncc(C(=O)Nc2cc(C(F)(F)F)c(Cl)cn2)s1 [Example 156] | ≤ 0.1 | 1 to 10 |  |
| Cc1ncoc1C(=O)N[C@H](C)c1ncc(C(=O)Nc2cc(C(F)(F)F)c(Cl)cn2)s1 [Example 103] | ≤ 0.1 | 1 to 10 |  |
| CC(NC(=O)c1ncc2ncn(C)c2n1)c1cnc(Nc2ccc(C(F)(F)F)cc2)s1 (stereo not shown) [Example 190] | ≤ 0.1 | 0.1 to 1 |  |
| CNC(=O)Cn1cnc2cnc(C(=O)NC(C)c3cnc(Nc4ccc(C(F)(F)F)cc4)s3)cc21 (stereo not shown) [Example 356] | ≤ 0.1 | 0.1 to 1 |  |
| C[C@@H](NC(=O)c1cnn(C)c1CNCCF)c1ncc(C(=O)Nc2cc(C(F)(F)F)c(Cl)cn2)s1 [Example 131] | 0.1 to 1 | 0.1 to 1 |  |
| CC(NC(=O)c1cc2c(cn1)ncn2CCO)c1cnc(Nc2ccc(C(F)(F)F)cc2)s1 (stereo not shown) [Example 25] | ≤ 0.1 | 0.1 to 1 |  |
| C[C@@H](NC(=O)c1cnn(Cc2ccccc2)c1)c1ncc(C(=O)Nc2cc(C(F)(F)F)c(Cl)cn2)s1 [Example 118] | ≤ 0.1 | 1 to 10 |  |
| CC(NC(=O)c1cc2c(cn1)ncn2C1CCC1)c1cnc(Nc2ccc(C(F)(F)F)cc2)cn1 (stereo not shown) [Example 175] | ≤ 0.1 | ≤ 0.1 |  |
| C[C@@H](NC(=O)c1cnc2n1CCN(C)C2)c1ncc(C(=O)Nc2cc(C(F)(F)F)c(Cl)cn2)s1 [Example 317] | 0.1 to 1 | 1 to 10 |  |
| C[C@@H](NC(=O)c1cc2c(cn1)ncn2C)c1cnc(Nc2ccc(C(F)(F)F)nc2)s1 (single isomer, unassigned) [Example 266] | 0.1 to 1 | 1 to 10 |  |
| C[C@@H](NC(=O)c1cnn(C)c1CN1CCCCC1)c1ncc(C(=O)Nc2cc(C(F)(F)F)c(Cl)cn2)s1 [Example 128] | 0.1 to 1 | 0.1 to 1 |  |
| CC(NC(=O)c1cc2c(cn1)nc(N)n2C)c1cnc(Nc2ccc(C(F)(F)F)cc2)cn1 (stereo not shown) [Example 201] | ≤ 0.1 | ≤ 0.1 |  |
| CC(NC(=O)c1ccnc(N2CCOCC2)c1)c1ncc(C(=O)Nc2cc(C(F)(F)F)c(Cl)cn2)s1 (stereo not shown) [Example 89] | 0.1 to 1 | 0.1 to 1 |  |
| C[C@@H](NC(=O)c1cnn2ccccc12)c1cc(C(=O)Nc2nc3ccccc3[nH]2)on1 [Example 211] | ≤ 0.1 | 1 to 10 |  |
